Experiments:
Experiment in all cases: relative viability (nuclei count vs DMSO), 5 days (fraction); higher = more cells survive
NCI-H1792 = tested on: NCI-H1792
Outline: (§1)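 One day after seeding in 1536-well plates, lung cancer cell lines were dosed by pin tool. Dosing was either single-drug or a fixed anchor-drug dose plus five library-drug doses (not always all listed) in √10 steps. After 5 days, nuclei were stained in one fix-and-stain step and counted on 4× images, and relative viability is the nuclei count of treated wells over that of vehicle wells, given as the median of duplicate plates.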

NCI-H460 = tested on: NCI-H460
Outline: as §1

HCC-78 = tested on: HCC-78
Outline: as §1

LU99A = tested on: LU99A
Outline: as §1

SK-LU-1 = tested on: SK-LU-1
Outline: as §1

NCI-H1666 = tested on: NCI-H1666
Outline: as §1

LXF-289 = tested on: LXF-289
Outline: as §1

HCC-366 = tested on: HCC-366
Outline: as §1

NCI-H2009 = tested on: NCI-H2009
Outline: as §1

NCI-H1915 = tested on: NCI-H1915
Outline: as §1

UMC-11 = tested on: UMC-11
Outline: as §1

A-427 = tested on: A-427
Outline: as §1

LC-2-ad = tested on: LC-2-ad
Outline: as §1

NCI-H358 = tested on: NCI-H358
Outline: as §1

SW 900 = tested on: SW 900
Outline: as §1

NCI-H2170 = tested on: NCI-H2170
Outline: as §1

COR-L 105 = tested on: COR-L 105
Outline: as §1

HOP-62 = tested on: HOP-62
Outline: as §1

NCI-H1793 = tested on: NCI-H1793
Outline: as §1

NCI-H1944 = tested on: NCI-H1944
Outline: as §1

EPLC-272H = tested on: EPLC-272H
Outline: as §1

NCI-H2085 = tested on: NCI-H2085
Outline: as §1

Compound: CC(=O)O[C@@]12CO[C@@H]1C[C@H](O)[C@@]1(C)C(=O)[C@H](O)C3=C(C)[C@@H](OC(=O)[C@H](O)[C@@H](NC(=O)OC(C)(C)C)c4ccccc4)C[C@@](O)([C@@H](OC(=O)c4ccccc4)[C@H]21)C3(C)C [Docetaxel] + COc1cccc2cc(-c3nc([C@H]4CC[C@H](C(=O)O)CC4)n4ncnc(N)c34)[nH]c12 [OSI-027] (partner 0.5 µM)
- relative viability (NCI-H1792; first compound 0.0002 µM): 0.673
- relative viability (NCI-H1792; first compound 0.000632 µM): 0.699
- relative viability (NCI-H1792; first compound 0.002 µM): 0.545
- relative viability (NCI-H1792; first compound 0.006325 µM): 0.409
- relative viability (NCI-H1792; first compound 0.02 µM): 0.186
- relative viability (NCI-H460; first compound 0.0002 µM): 0.645
- relative viability (NCI-H460; first compound 0.000632 µM): 0.238
- relative viability (NCI-H460; first compound 0.002 µM): 0.0745
- relative viability (NCI-H460; first compound 0.006325 µM): 0.0177
- relative viability (NCI-H460; first compound 0.02 µM): 0.0139
- relative viability (HCC-78; first compound 0.0002 µM): 0.321
- relative viability (HCC-78; first compound 0.000632 µM): 0.308
- relative viability (HCC-78; first compound 0.002 µM): 0.315
- relative viability (HCC-78; first compound 0.006325 µM): 0.278
- relative viability (HCC-78; first compound 0.02 µM): 0.284
- relative viability (LU99A; first compound 0.0002 µM): 0.293
- relative viability (LU99A; first compound 0.002 µM): 0.29
- relative viability (LU99A; first compound 0.006325 µM): 0.247
- relative viability (LU99A; first compound 0.02 µM): 0.202
- relative viability (SK-LU-1; first compound 0.0002 µM): 0.353
- relative viability (SK-LU-1; first compound 0.000632 µM): 0.26
- relative viability (SK-LU-1; first compound 0.002 µM): 0.228
- relative viability (SK-LU-1; first compound 0.006325 µM): 0.197
- relative viability (SK-LU-1; first compound 0.02 µM): 0.144
- relative viability (NCI-H1666; first compound 0.0002 µM): 0.739
- relative viability (NCI-H1666; first compound 0.000632 µM): 0.641
- relative viability (NCI-H1666; first compound 0.002 µM): 0.574
- relative viability (NCI-H1666; first compound 0.006325 µM): 0.491
- relative viability (NCI-H1666; first compound 0.02 µM): 0.322
- relative viability (LXF-289; first compound 0.0002 µM): 0.819
- relative viability (LXF-289; first compound 0.000632 µM): 0.652
- relative viability (LXF-289; first compound 0.006325 µM): 0.117
- relative viability (LXF-289; first compound 0.02 µM): 0.067
- relative viability (HCC-366; first compound 0.0002 µM): 0.917
- relative viability (HCC-366; first compound 0.000632 µM): 0.553
- relative viability (HCC-366; first compound 0.002 µM): 0.0467
- relative viability (HCC-366; first compound 0.006325 µM): 0.0385
- relative viability (HCC-366; first compound 0.02 µM): 0.0274
- relative viability (NCI-H2009; first compound 0.0002 µM): 0.618
- relative viability (NCI-H2009; first compound 0.000632 µM): 0.66
- relative viability (NCI-H2009; first compound 0.002 µM): 0.491
- relative viability (NCI-H2009; first compound 0.006325 µM): 0.231
- relative viability (NCI-H2009; first compound 0.02 µM): 0.134
- relative viability (NCI-H1915; first compound 0.0002 µM): 0.603
- relative viability (NCI-H1915; first compound 0.000632 µM): 0.505
- relative viability (NCI-H1915; first compound 0.006325 µM): 0.224
- relative viability (NCI-H1915; first compound 0.02 µM): 0.14
- relative viability (UMC-11; first compound 0.0002 µM): 0.433
- relative viability (UMC-11; first compound 0.000632 µM): 0.469
- relative viability (UMC-11; first compound 0.002 µM): 0.231
- relative viability (UMC-11; first compound 0.006325 µM): 0.244
- relative viability (UMC-11; first compound 0.02 µM): 0.175
- relative viability (A-427; first compound 0.0002 µM): 0.465
- relative viability (A-427; first compound 0.000632 µM): 0.435
- relative viability (A-427; first compound 0.002 µM): 0.224
- relative viability (A-427; first compound 0.006325 µM): 0.235
- relative viability (A-427; first compound 0.02 µM): 0.155
- relative viability (LC-2-ad; first compound 0.0002 µM): 0.598
- relative viability (LC-2-ad; first compound 0.000632 µM): 0.589
- relative viability (LC-2-ad; first compound 0.002 µM): 0.441
- relative viability (LC-2-ad; first compound 0.006325 µM): 0.415
- relative viability (NCI-H358; first compound 0.0002 µM): 0.738
- relative viability (NCI-H358; first compound 0.000632 µM): 0.23
- relative viability (NCI-H358; first compound 0.006325 µM): 0.0795
- relative viability (NCI-H358; first compound 0.02 µM): 0.0599
- relative viability (SW 900; first compound 0.0002 µM): 0.298
- relative viability (SW 900; first compound 0.000632 µM): 0.245
- relative viability (SW 900; first compound 0.002 µM): 0.177
- relative viability (SW 900; first compound 0.006325 µM): 0.18
- relative viability (SW 900; first compound 0.02 µM): 0.109
- relative viability (NCI-H2170; first compound 0.0002 µM): 0.734
- relative viability (NCI-H2170; first compound 0.000632 µM): 0.754
- relative viability (NCI-H2170; first compound 0.002 µM): 0.339
- relative viability (NCI-H2170; first compound 0.006325 µM): 0.256
- relative viability (COR-L 105; first compound 0.0002 µM): 0.569
- relative viability (COR-L 105; first compound 0.000632 µM): 0.654
- relative viability (COR-L 105; first compound 0.002 µM): 0.408
- relative viability (COR-L 105; first compound 0.006325 µM): 0.277
- relative viability (COR-L 105; first compound 0.02 µM): 0.289
- relative viability (HOP-62; first compound 0.0002 µM): 0.835
- relative viability (HOP-62; first compound 0.000632 µM): 0.631
- relative viability (HOP-62; first compound 0.002 µM): 0.369
- relative viability (NCI-H1793; first compound 0.0002 µM): 0.282
- relative viability (NCI-H1793; first compound 0.000632 µM): 0.275
- relative viability (NCI-H1793; first compound 0.002 µM): 0.227
- relative viability (NCI-H1793; first compound 0.006325 µM): 0.181
- relative viability (NCI-H1793; first compound 0.02 µM): 0.15
- relative viability (NCI-H1944; first compound 0.0002 µM): 0.38
- relative viability (NCI-H1944; first compound 0.000632 µM): 0.423
- relative viability (NCI-H1944; first compound 0.002 µM): 0.26
- relative viability (NCI-H1944; first compound 0.02 µM): 0.139
- relative viability (EPLC-272H; first compound 0.0002 µM): 0.258
- relative viability (EPLC-272H; first compound 0.000632 µM): 0.235
- relative viability (EPLC-272H; first compound 0.002 µM): 0.228
- relative viability (EPLC-272H; first compound 0.006325 µM): 0.159
- relative viability (EPLC-272H; first compound 0.02 µM): 0.124
- relative viability (NCI-H2085; first compound 0.0002 µM): 0.718
- relative viability (NCI-H2085; first compound 0.000632 µM): 0.706
- relative viability (NCI-H2085; first compound 0.002 µM): 0.433
- relative viability (NCI-H2085; first compound 0.006325 µM): 0.316
- relative viability (NCI-H2085; first compound 0.02 µM): 0.272

— the supplement of paper PMC10307832
